pKi: −log10 of the molar value.
Columns and labels:
Carbonic anhydrase 1 = Carbonic anhydrase 1 (Homo sapiens, UniProt P00915); test: Esterase Assay; details: pH 7.4; 25 °C
Method: (§1) The enzymatic reaction, in a total volume of 3.0 mL, contained 1.4 mL 0.05 M Tris-SO4 buffer (pH 7.4), 1 mL 3 mM NPA, 0.5 mL H2O and 0.1 mL enzyme solution. A reference measurement was obtained by preparing the same cuvette without enzyme solution. All compounds were tested in triplicate at each concentration used.

Carbonic anhydrase 2 = Carbonic anhydrase 2 (Homo sapiens, UniProt P00918); test: Esterase Assay; details: pH 7.4; 25 °C
Method: as §1

Chain of Carbonic anhydrase 1 (P00915 whole entry): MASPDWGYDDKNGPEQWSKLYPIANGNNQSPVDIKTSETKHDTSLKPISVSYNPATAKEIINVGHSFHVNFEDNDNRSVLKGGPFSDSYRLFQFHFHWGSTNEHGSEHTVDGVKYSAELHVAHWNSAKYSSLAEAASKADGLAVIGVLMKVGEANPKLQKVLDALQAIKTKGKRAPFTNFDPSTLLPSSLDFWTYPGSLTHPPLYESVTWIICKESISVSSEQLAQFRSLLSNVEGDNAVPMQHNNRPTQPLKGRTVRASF

Work on Cc1cccc(N2C(=O)[C@@H](C)S[C@H]2c2sccc2C)n1 [Thiazolidin-based CA inhibitor, 5b] yielded a pKi (Carbonic anhydrase 1) of 4.53 and a pKi (Carbonic anhydrase 2) of 5.44.

Cc1cccc(N2C(=O)CSC2c2ccc(C)s2)n1 (stereo unspecified) [Thiazolidin-based CA inhibitor, 3] gave a pKi (Carbonic anhydrase 1) of 5.27 and a pKi (Carbonic anhydrase 2) of 5.87.

Cc1cccc(N2C(=O)[C@H](C)S[C@H]2c2ccc(C)s2)n1 [(2S,5S)-5-methyl-3-(6-methylpyridin-2-yl)-2-(5-methylthiophen-2-yl)thiazolidin-4-one] was tested, and the pKi (Carbonic anhydrase 1) was 5.25 and the pKi (Carbonic anhydrase 2) was 6.03.

Compound Cc1cccc(N2C(=O)[C@H](C)S[C@H]2c2sccc2C)n1 [Thiazolidin-based CA inhibitor, 5a] has a pKi (Carbonic anhydrase 1) of 4.56 and a pKi (Carbonic anhydrase 2) of 5.64.

In the case of Cc1cccc(N2C(=O)CSC2c2sccc2C)n1 (stereo unspecified) [Thiazolidin-based CA inhibitor, 2], the pKi (Carbonic anhydrase 1) was 4.32 and the pKi (Carbonic anhydrase 2) was 5.61.

Compound Cc1cccc(N2C(=O)C(C)SC2c2cccs2)n1 (stereo unspecified) [Thiazolidin-based CA inhibitor, 4] has a pKi (Carbonic anhydrase 1) of 5.26 and a pKi (Carbonic anhydrase 2) of 5.88.

With Cc1cccc(N2C(=O)[C@@H](C)S[C@H]2c2ccc(C)s2)n1 [(2S,5R)-5-methyl-3-(6-methylpyridin-2-yl)-2-(5-methylthiophen-2-yl)thiazolidin-4-one] the pKi (Carbonic anhydrase 1) was 5.35 and the pKi (Carbonic anhydrase 2) was 6.09.

With Cc1cccc(N2C(=O)CSC2c2cccs2)n1 (stereo unspecified) [Thiazolidin-based CA inhibitor, 1] the pKi (Carbonic anhydrase 1) was 5.17 and the pKi (Carbonic anhydrase 2) was 5.87.

Reference: BindingDB's records for doi:10.3109/14756366.2012.732071 (Ondokuz Mayis University, 2013)
